From PubChem BioAssay AID248 (DTP/NCI, 2004)
Where “and” joins values, the source holds several entries; their conditions need not be identical. Equal values may be shown once. Toxic doses and inconclusive results are not listed.

System: L1210 leukemia ip in BDF1 mice, survival T/C
Assay: NCI In Vivo Anticancer Drug Screen. Data for tumor model L1210 Leukemia (intraperitoneal) in B6D2F1 (BDF1) mice
Details: endpoint: mean survival time, higher = longer survival
Outline: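 Transplanted-tumor mice were given test agent; controls received vehicle only. Survival readings from the two groups were divided (treated over control).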

[1] = dose: 100.0 mg/kg/injection, schedule: Q01DX001 (ip), vehicle: Klucel (hydroxypropylcellulose) (HPC)
[2] = dose: 100.0 mg/kg/injection, schedule: Q04DX003 (ip), vehicle: Klucel (hydroxypropylcellulose) (HPC)
[3] = dose: 200.0 mg/kg/injection, schedule: Q01DX001 (ip), vehicle: Klucel (hydroxypropylcellulose) (HPC)
[4] = dose: 200.0 mg/kg/injection, schedule: Q04DX003 (ip), vehicle: Klucel (hydroxypropylcellulose) (HPC)
[5] = dose: 400.0 mg/kg/injection, schedule: Q01DX001 (ip), vehicle: Klucel (hydroxypropylcellulose) (HPC)
[6] = dose: 400.0 mg/kg/injection, schedule: Q04DX003 (ip), vehicle: Klucel (hydroxypropylcellulose) (HPC)
[7] = dose: 50.0 mg/kg/injection, schedule: Q01DX009 (ip), vehicle: Klucel (hydroxypropylcellulose) (HPC)
[8] = dose: 100.0 mg/kg/injection, schedule: Q01DX009 (ip), vehicle: Klucel (hydroxypropylcellulose) (HPC)
[9] = dose: 200.0 mg/kg/injection, schedule: Q01DX009 (ip), vehicle: Klucel (hydroxypropylcellulose) (HPC)
[10] = dose: 400.0 mg/kg/injection, schedule: Q01DX009 (ip), vehicle: Klucel (hydroxypropylcellulose) (HPC)

`Cc1cc(C2C(O)C(c3cc(C)on3)C2(C)O)no1` (stereo not given) was tested, and the T/C [1] was 98 % of control, the T/C [2] was 103 % of control and the T/C [3] was 98 % of control. For the same compound, the T/C [4] was 97 % of control, the T/C [5] was 97 % of control and the T/C [6] was 103 % of control.

For `NOc1ccc([N+](=O)[O-])cc1[N+](=O)[O-]`, the T/C (dose: 100.0 mg/kg/injection, schedule: Q04DX003 (ip), vehicle: saline with Tween-80) was 108 % of control.

`NC(C(=O)O)c1ccccc1Cl` (stereo not given) was tested, and the T/C [7] was 95 % of control, the T/C [1] was 92 % of control and the T/C [8] was 101 % of control. For the same compound, the T/C [3] was 102 % of control, the T/C [9] was 107 % of control and the T/C [5] was 91 % of control.

With `CCOC(=O)COc1cc(N)c(Cl)cc1Cl` the T/C (dose: 100.0 mg/kg/injection, schedule: Q04DX002 (ip), vehicle: gum acacia) was 95 % of control, the T/C (dose: 200.0 mg/kg/injection, schedule: Q04DX002 (ip), vehicle: gum acacia) was 95 % of control and the T/C (dose: 400.0 mg/kg/injection, schedule: Q04DX002 (ip), vehicle: gum acacia) was 92 % of control.

For `Cc1cccc(C)c1NC(=O)Nc1ccc(Cl)cc1`, the T/C [8] was 97 % of control, the T/C [2] was 97 % of control and the T/C [9] was 96 % of control. The T/C [4] was 100 % of control, the T/C [10] was 91 % of control and the T/C [6] was 95 % of control.

With `CCC(Cl)(c1ccccc1)C(O)C(=O)OC(C)C` (stereo not given) the T/C (dose: 100.0 mg/kg/injection, schedule: Q04DX002 (ip), vehicle: Klucel (hydroxypropylcellulose) (HPC)) was 106 % of control, the T/C (dose: 200.0 mg/kg/injection, schedule: Q04DX002 (ip), vehicle: Klucel (hydroxypropylcellulose) (HPC)) was 103 % of control and the T/C (dose: 400.0 mg/kg/injection, schedule: Q04DX002 (ip), vehicle: Klucel (hydroxypropylcellulose) (HPC)) was 106 % of control.

In the case of `O=c1[nH]cnc2c1cnn2C1OC(CO)C(O)C1O` (stereo not given), the T/C (dose: 12.5 mg/kg/injection, schedule: Q01DX005 (ip), vehicle: water) is reported as 92 % of control, the T/C (dose: 25.0 mg/kg/injection, schedule: Q01DX005 (ip), vehicle: water) is reported as 106 % of control and the T/C (dose: 50.0 mg/kg/injection, schedule: Q01DX005 (ip), vehicle: water) is reported as 97 % of control. For the same compound, the T/C (dose: 100.0 mg/kg/injection, schedule: Q01DX005 (ip), vehicle: water) was 108 % of control and the T/C (dose: 200.0 mg/kg/injection, schedule: Q01DX005 (ip), vehicle: water) was 93 % of control.

For `CC(C)CC[n+]1cccc(C(N)=O)c1`, the T/C (dose: 100.0 mg/kg/injection, schedule: Q04DX003 (ip), vehicle: saline) was 100 % of control, the T/C (dose: 200.0 mg/kg/injection, schedule: Q04DX003 (ip), vehicle: saline) was 110 % of control and the T/C (dose: 400.0 mg/kg/injection, schedule: Q04DX003 (ip), vehicle: saline) was 113 % of control.

With `CNC(=N)c1ccc(NC(=N)c2ccc(NC(=N)c3ccc(NC(=O)c4ccc(C(=N)NC)cc4)cc3)cc2)cc1` the T/C (dose: 3.75 mg/kg/injection, schedule: Q01DX015 (ip), vehicle: water) was 104 % of control, the T/C (dose: 7.5 mg/kg/injection, schedule: Q01DX015 (ip), vehicle: water) was 101 % of control and the T/C (dose: 15.0 mg/kg/injection, schedule: Q01DX015 (ip), vehicle: water) was 108 % of control. For the same compound, the T/C (dose: 20.0 mg/kg/injection, schedule: Q01DX Z (ip), vehicle: water) was 177 % of control, the T/C (dose: 30.0 mg/kg/injection, schedule: Q01DX015 (ip), vehicle: water) was 176 % of control and 180 % of control and the T/C (dose: 50.0 mg/kg/injection, schedule: Q01DX015 (ip), vehicle: water) was 97 % of control.

`CCCCCCCCCCCC(=O)Nc1cc(C)ccc1N=Nc1ccc(C)cc1` was tested, and the T/C [7] was 86 % of control, the T/C [8] was 95 % of control and the T/C [9] was 88 % of control. The T/C [10] was 90 % of control.

`CCN(CC)CCCC(C)Nc1cc(N)nc2nc(-c3ccc(Cl)cc3)cnc12` (stereo not given) was tested, and the T/C (dose: 75.0 mg/kg/injection, schedule: Q01DX001 (ip), vehicle: saline) was 94 % of control and the T/C (dose: 150.0 mg/kg/injection, schedule: Q01DX001 (ip), vehicle: saline) was 101 % of control.
